Assay [1] deals with MDA-MB-231 cells. The assay is described as follows: In vitro clonogenic assay, MDA-MB-231. It is filed as cell-based, human. The settings on record: 24 hour treatment; for inhibition at 0.1 µM / inhibition at 10 µM / inhibition at 100 µM: Homo sapiens. How it is done: In order to determine the cytotoxic activity of LFM and its analogs against breast cancer cells, cells in alpha-MEM supplemented with 10% (v/v) fetal calf serum were treated with various concentrations of the compounds for 24 hours at 37° C., washed twice in alpha-MEM, and then used in either MTT assays or in vitro invasion assays, as described hereinafter.
After treatment with LFM analogs, cells were resuspended in clonogenic medium consisting of alpha-MEM supplemented with 0.9% methylcellulose, 30% fetal bovine serum, and 50 μM 2-mercaptoethanol. Cells were plated in duplicate Petri dishes at 100,000 cells/mL/dish and cultured in a humidified 5% CO2 incubator for 7 days. Cancer cell colonies were enumerated on a grid using an inverted phase microscope of high optical resolution (Uckun F. M., et al. Clin. Cancer Res. 1998, 4, 901-912; and Kuo). Results were expressed as % inhibition of clonogenic cells at a particular concentration of the test agent using the formula: % Inhibition=(1-Mean # of colonies [Test]/Mean # of colonies [Control])×100. Furthermore, the dose survival curves were constructed using the percent control survival (=Mean # of colonies[Test]/Mean # of colonies [Control]×100) results for each drug concentration as the data points and the IC50 values were calculated. The IC50 values were determined using an Prism Version II Inplot program (Graphpad Software, Inc., San Diego, Calif.).

Assay [2] addresses T1, EGFR tyrosine kinase (Homo sapiens, UniProt P00533).
T1 construct: anti-EGFR immunoprecipitates from lysates of MDA-MB-231 human breast cancer cells; endogenous in cells; host or cells: MDA-MB-231 (ATCC HTB-26)
Description: Cell-free EGFR immune complex kinase assay. The settings on record: EGFR immunoprecipitated from MDA-MB-231 lysates, 1 hour incubation, read-out: EGFR Inhibition IC50. It is filed as biochemical. As to the method:
For EGFR immune complex kinase assays, 24-hours after treatment with leflunomide analogs, MDA-MB-231 breast cancer cells were stimulated with 20 ng/mL EGF for 5 minutes, lysed in 1% Nonidet-P-40 buffer, and cell lysates were immunoprecipitated with an anti-EGFR antibody reactive with the sequence Ala^351-Asp^364 of the human EGFR (Upstate Biotechnology Inc. [UBI] Catalog # 05-104) (Uckun, F. M., et al. Clin. Can. Res. 1998, 4, 901). EGFR immune complexes were examined for tyrosine phosphorylation by Western blot analysis, as described by Uckun, F. M., et al. Clin. Can. Res. 1998, 4, 901. All anti-phosphotyrosine Western blots were subjected to densitometric scanning using the automated AMBIS system (Automated Microbiology System, Inc., San Diego, Calif.) and for each time point a % inhibition value was determined by comparing the density ratios of the tyrosine phosphorylated EGFR protein bands to those of the baseline sample and using the formula: % Inhibition=100−100×[Density of tyrosine phosphorylated EGFR band]test sample/[Density of tyrosine phosphorylated EGFR band]baseline control sample. The IC50 values were determined using an Inplot program (Graphpad Software, Inc., San Diego, Calif.).
In other experiments, MDA-MB-231 cells were stimulated with 10 ng/ml EGF prior to immunoprecipitation of the EGFR. EGFR immune complexes were incubated for 1 hour at room temperature with various LFM analogs and tyrosine kinase assays were performed in the presence of [γ-^32P]-ATP, as previously described (Uckun, F. M., et al. Clin. Can. Res. 1998, 4, 901; Narla, R. K., et al. Clin. Can. Res 1998, 1405; Uckun, F. M., et al. Science 1996, 22, 1096; Uckun, F. M., et al. Science 1995, 267, 886). The kinase assay gels were analyzed both by autoradiography and using the BioRad Storage Phosphor Imager System (BioRad, Hercules, Calif.) for quantitative scanning.

Assay [3] has as its target T2, insulin receptor kinase (IRK) (Homo sapiens, UniProt P06213).
T2 construct: IRK was immunoprecipitated from the lysates with an anti-IRb antibody; endogenous in cells; host or cells: HepG2 human hepatoma cells (ATCC)
The assay is described as follows: Cell-free IRK immune complex kinase assay. It is filed as biochemical. The settings on record: for effect on enzymatic activity of IRK: at concentrations as high as 350 μM, IRK from HepG2 cells. How it is done: Immunoprecipitations, immune-complex protein kinase assays, and immunoblotting using the ECL chemiluminescence detection system (Amersham Life Sciences) were conducted as described previously (Vassilev, A., et al. J. Biol. Chem. 1998, in press; Goodman, P. A., et al. J. Biol. Chem. 1998, 273, 17742; Mahajan, S., et al. Mol. Cell. Biol. 1995, 15, 5304; Uckun, F. M., et al. Science 1996, 22, 1096).
Horse radish peroxidase-conjugated sheep anti-mouse, donkey anti-rabbit secondary antibodies and ECL reagents were purchased from Amersham (Oakbrook, Ill.). For insulin receptor kinase (IRK) assays, HepG2 human hepatoma cells grown to approximately 80% confluency were washed once with serum-free DMEM and starved for 3 hour at 37° in a CO2 incubator. Subsequently, cells were stimulated with insulin (Eli Lilly, cat# CP-410;10 units/ml/10×10^6 cells) for 10 minutes at room temperature. Following this IRK activation step, cells were washed once with serum free medium, lysed in NP-40 buffer and IRK was immunoprecipitated from the lysates with an anti-IRb antibody (Santa Cruz, Cat.# sc-711, polyclonal IgG). Prior to performing the immunecomplex kinase assays, the beads were equilibrated with the kinase buffer (30 mM Hepes pH 7.4, 30 mM NaCl, 8 mM MgCl2, 4 mM MnCl2).

The source of these data is patent publication US6864286B2, “Inhibitors of the EGF-receptor tyrosine kinase and methods for their use” (Parker Hughes Institute, priority 1998, dated 2005).

“Also recorded” adds a separate entry of the source.

In general, inhibition refers to the drop in the measured response relative to a control, in per cent. Read a high inhibition as a response far below the control. As usually defined, the IC50 is the point on the concentration scale where inhibition reaches its midpoint.

T2 sequence (P06213 763-1382 limits assumed): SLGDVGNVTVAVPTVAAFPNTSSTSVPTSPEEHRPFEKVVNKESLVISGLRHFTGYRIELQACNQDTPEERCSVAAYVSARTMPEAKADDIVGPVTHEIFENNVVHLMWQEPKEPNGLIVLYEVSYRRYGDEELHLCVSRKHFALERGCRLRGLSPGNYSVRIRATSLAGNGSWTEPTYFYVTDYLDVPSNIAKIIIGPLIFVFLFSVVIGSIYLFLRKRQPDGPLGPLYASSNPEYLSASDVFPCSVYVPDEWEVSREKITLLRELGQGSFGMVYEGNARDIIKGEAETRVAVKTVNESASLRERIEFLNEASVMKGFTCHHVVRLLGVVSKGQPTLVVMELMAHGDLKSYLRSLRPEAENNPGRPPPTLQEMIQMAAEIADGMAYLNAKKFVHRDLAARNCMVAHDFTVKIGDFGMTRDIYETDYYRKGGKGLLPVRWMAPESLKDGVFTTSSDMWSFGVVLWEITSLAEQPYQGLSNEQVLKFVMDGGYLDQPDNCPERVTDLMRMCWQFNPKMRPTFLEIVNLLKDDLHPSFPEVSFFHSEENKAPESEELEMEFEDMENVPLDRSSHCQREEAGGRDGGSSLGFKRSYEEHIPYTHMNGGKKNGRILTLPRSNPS
T2 sequence (P06213 28-758 partner limits assumed): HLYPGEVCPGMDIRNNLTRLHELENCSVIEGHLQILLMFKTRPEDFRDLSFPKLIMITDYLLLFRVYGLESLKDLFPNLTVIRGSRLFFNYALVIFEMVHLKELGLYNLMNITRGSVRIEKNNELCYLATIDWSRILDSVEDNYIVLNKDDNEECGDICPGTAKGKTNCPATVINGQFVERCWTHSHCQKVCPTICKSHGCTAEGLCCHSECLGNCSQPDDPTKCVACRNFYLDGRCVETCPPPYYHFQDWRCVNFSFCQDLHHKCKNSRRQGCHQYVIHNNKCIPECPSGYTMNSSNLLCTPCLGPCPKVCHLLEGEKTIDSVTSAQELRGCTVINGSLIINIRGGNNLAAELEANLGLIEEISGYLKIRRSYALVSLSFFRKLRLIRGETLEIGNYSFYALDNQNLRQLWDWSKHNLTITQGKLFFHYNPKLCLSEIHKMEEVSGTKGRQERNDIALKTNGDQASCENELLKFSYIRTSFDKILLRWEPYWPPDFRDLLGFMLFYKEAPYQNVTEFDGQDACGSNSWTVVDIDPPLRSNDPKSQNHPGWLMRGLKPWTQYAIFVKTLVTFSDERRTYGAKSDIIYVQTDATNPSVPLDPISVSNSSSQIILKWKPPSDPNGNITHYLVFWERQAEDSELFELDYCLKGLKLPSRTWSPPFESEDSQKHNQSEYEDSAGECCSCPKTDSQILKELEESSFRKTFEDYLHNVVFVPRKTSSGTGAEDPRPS
T1 sequence (P00533 25-1210): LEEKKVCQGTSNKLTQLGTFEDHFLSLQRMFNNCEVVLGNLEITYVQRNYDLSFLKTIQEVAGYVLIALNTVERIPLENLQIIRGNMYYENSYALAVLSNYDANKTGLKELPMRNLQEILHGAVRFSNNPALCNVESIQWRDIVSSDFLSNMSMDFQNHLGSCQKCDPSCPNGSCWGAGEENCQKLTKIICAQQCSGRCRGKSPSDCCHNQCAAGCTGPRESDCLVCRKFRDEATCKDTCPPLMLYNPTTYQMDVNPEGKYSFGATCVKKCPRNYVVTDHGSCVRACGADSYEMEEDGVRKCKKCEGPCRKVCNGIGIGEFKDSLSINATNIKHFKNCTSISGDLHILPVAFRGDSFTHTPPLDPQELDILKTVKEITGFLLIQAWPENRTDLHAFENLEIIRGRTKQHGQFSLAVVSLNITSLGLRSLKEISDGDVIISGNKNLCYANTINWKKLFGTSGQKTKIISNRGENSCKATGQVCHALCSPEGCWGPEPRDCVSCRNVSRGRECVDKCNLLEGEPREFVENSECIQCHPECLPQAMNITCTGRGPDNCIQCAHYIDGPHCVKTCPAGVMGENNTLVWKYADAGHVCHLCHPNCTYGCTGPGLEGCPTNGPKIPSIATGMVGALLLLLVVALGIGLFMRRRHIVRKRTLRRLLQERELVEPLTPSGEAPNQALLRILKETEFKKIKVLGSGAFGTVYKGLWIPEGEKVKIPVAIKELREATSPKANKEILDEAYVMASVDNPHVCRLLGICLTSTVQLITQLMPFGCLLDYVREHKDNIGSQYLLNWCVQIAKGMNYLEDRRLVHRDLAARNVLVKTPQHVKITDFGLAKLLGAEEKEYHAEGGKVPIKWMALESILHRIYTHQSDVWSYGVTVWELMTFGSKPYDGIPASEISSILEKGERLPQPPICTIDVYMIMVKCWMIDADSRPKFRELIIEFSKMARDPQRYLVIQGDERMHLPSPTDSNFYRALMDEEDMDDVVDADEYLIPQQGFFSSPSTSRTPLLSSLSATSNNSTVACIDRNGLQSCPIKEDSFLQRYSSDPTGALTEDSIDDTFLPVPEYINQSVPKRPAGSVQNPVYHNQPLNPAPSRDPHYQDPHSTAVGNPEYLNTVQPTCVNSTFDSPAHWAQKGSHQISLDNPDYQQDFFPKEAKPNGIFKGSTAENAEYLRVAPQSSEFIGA

Consider `CC(O)=C(C#N)C(=O)Nc1ccc(C(F)(F)F)cc1` [LFM, α-Cyano-β-hydroxy-β-methyl-N-[4-(trifluoromethyl)phenyl]-propenamide, reference compound], for which, in assay [1] (MDA-MB-231, 0.1 μM), at 0.1 µM the inhibition was 16.2% and the “Tumor Cell Colonies/10^5 Cells” value stood at 964. Moreover, in assay [1] (MDA-MB-231, 10 μM), 10 µM produced 44.2% inhibition and the “Tumor Cell Colonies/10^5 Cells” value is on record as 642. In assay [1] (MDA-MB-231, 100 μM), at 100 µM the inhibition was 74.2% and the “Tumor Cell Colonies/10^5 Cells” value worked out at 297. Also, the half-inhibitory concentration (IC50) in assay [2] was 5.4 µM. Further, the “effect on enzymatic activity of IRK” value in assay [3] is on record as “did not affect the enzymatic activity; also recorded: lack of inhibition”.
As to `C/C(O)=C(\C#N)C(=O)Nc1ccc(OC(F)(F)F)cc1` [LFM-A12, α-Cyano-β-hydroxy-β-methyl-N-[4-(trifluoromethoxy)phenyl]-propenamide], the inhibition at 0.1 µM in assay [1] (MDA-MB-231, 0.1 μM) worked out at 42%. Moreover, in assay [1] (MDA-MB-231, 10 μM), the inhibition at 10 µM is 55.2%. Moreover, in assay [1] (MDA-MB-231, 100 μM), the inhibition at 100 µM is more than 99%. Also, the “Tumor Cell Colonies/10^5 Cells” value is 667 in assay [1] (MDA-MB-231, 0.1 μM); 515 in assay [1] (MDA-MB-231, 10 μM); 0 in assay [1] (MDA-MB-231, 100 μM). In assay [1] (MDA-MB-231, 100 μM, 100 µM), the “% Inhibition of clonogenic cells” value is reported as more than 99%. For the same compound, the IC50 was 1.7 µM in assay [2] and more than 350 µM in assay [3] (IRK, cell-free, read-out: Inhibition IC50). Further, the “effect on enzymatic activity of IRK” value in assay [3] is “did not affect the enzymatic activity; also recorded: lack of inhibition”.
